Reference: patent US10752609B2, “GSK-3 inhibitors” (priority 2016, dated 2020)
Like-named read-outs stand apart in the source and are kept apart here.

Tests used:
[1] = target: GSK3α (Homo sapiens, UniProt P49840); assay: GSK3α kinase assay (Caliper LabChip3000 mobility shift, fluoresceinated peptide substrate)
[2] = target: GSK3β (Homo sapiens, UniProt P49841); assay: GSK3β kinase assay (Caliper LabChip3000 mobility shift, fluoresceinated peptide substrate); assay type: biochemical
Experimental: The kinase assay was performed in V-bottom 384-well plates. […] The reaction was incubated at room temperature for 20 hours and terminated by adding 45 μl of 35 mM EDTA to each sample. The reaction mixture was analyzed on the Caliper LabChip3000 (Caliper, Hopkinton, Mass.) by electrophoretic separation of the unphosphorylated substrate and phosphorylated product. […] Compounds were dissolved at 10 mM in dimethylsulfoxide (DMSO) and evaluated at eleven concentrations. IC50 values were derived by non-linear regression analysis.

[3] = tested on: pTau; assay: pTau assay (no method described); assay type: cell-based
[4] = 250 pM enzyme, 20 uM ATP, 1.5 uM peptide, 20 hours room temperature, first value of cell GSK3β/GSK3α, read-out: GSK3β (nM), IC50

Chain of GSK3α (P49840 whole entry, species assumed): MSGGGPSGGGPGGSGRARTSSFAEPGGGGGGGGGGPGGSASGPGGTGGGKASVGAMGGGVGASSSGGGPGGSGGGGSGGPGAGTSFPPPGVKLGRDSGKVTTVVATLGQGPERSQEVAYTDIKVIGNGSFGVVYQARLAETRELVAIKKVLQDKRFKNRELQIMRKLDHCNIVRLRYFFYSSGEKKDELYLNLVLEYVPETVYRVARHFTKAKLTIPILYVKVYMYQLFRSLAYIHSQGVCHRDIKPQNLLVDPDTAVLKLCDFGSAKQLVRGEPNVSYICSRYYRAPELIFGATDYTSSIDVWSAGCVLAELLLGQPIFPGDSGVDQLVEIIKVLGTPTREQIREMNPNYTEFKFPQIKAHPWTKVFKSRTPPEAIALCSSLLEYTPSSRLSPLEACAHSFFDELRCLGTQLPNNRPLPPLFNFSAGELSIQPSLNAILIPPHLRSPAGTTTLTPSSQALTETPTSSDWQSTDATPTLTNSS
Chain of GSK3β (P49841 whole entry, species assumed): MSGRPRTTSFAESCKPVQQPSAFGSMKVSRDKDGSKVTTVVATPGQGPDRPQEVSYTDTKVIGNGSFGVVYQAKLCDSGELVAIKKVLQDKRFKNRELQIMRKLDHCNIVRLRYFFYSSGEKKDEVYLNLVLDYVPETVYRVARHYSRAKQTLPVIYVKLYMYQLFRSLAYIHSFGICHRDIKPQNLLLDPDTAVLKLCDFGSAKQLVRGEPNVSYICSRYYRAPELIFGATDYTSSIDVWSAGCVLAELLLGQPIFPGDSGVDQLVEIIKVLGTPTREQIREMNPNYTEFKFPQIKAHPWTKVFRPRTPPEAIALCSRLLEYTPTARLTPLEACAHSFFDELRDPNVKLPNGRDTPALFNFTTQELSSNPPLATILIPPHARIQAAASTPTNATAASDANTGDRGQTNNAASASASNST

Row | Compound | IC50 [1] | IC50 [2, 4] | IC50 [3] | IC50 [2]
1 | O=C(Nc1cnccc1-c1ccc(F)cc1F)c1ccnc(Nc2ccc3ccccc3c2)n1 [Example 149, N-(4-(2,4-Difluorophenyl)pyridin-3-yl)-2-(naphthalen-2-ylamino)pyrimidine-4-carboxamide] | 0.36 nM | 0.65 nM | 110 nM | –
2 | O=C(Nc1cnc(F)cc1N1CCC(F)(F)CC1)c1ccnc(Nc2ccc(Cl)cc2)n1 [Example 178, 2-((4-Chlorophenyl)amino)-N-(4-(4,4-difluoropiperidin-1-yl)-6-fluoropyridin-3-yl)pyrimidine-4-carboxamide] | 0.57 nM | 0.67 nM | 69 nM | –
3 | O=C(Nc1cnc(F)cc1N1CCOCC1)c1ccnc(Nc2ccc(Cl)cc2F)n1 [Example 171, 2-((4-Chloro-2-fluorophenyl)amino)-N-(6-fluoro-4-morpholinopyridin-3-yl)pyrimidine-4-carboxamide] | 0.47 nM | – | 59 nM | 0.58 nM
4 | O=C(Nc1cnccc1-c1ccccc1)c1ccnc(Nc2ccc(C(F)(F)F)cc2)n1 [Example 9, N-(4-Phenylpyridin-3-yl)-2-((4-(trifluoromethyl)phenyl)amino)pyrimidine-4-carboxamide] | 1.2 nM | 2 nM | 240 nM | –
5 | O=C(Nc1cnccc1N1CCC(F)(F)CC1)c1ccnc(Nc2ccccc2)n1 [Example 3, N-(4-(4,4-Difluoropiperidin-1-yl)pyridin-3-yl)-2-(phenylamino)pyrimidine-4-carboxamide] | 0.15 nM | 0.2 nM | 8.5 nM | –
6 | COc1ccc(Nc2nccc(C(=O)Nc3cnccc3OCC(F)(F)F)n2)cc1F [Example 62, 2-((3-Fluoro-4-methoxyphenyl)amino)-N-(4-(2,2,2-trifluoroethoxy)pyridin-3-yl)pyrimidine-4-carboxamide] | 0.09 nM | 0.08 nM | 230 nM | –
7 | O=C(Nc1cncnc1OCC(F)(F)F)c1ccnc(NCC2CCOCC2)n1 [Example 190, 2-(((Tetrahydro-2H-pyran-4-yl)methyl)amino)-N-(4-(2,2,2-trifluoroethoxy)pyrimidin-5-yl)pyrimidine-4-carboxamide] | 2.6 nM | – | 190 nM | 3.1 nM
8 | O=C(Nc1cnccc1OCC(F)(F)F)c1ccnc(NCc2ccc3c(c2)OCO3)n1 [Example 132, 2-((Benzo[d][1,3]dioxol-5-ylmethyl)amino)-N-(4-(2,2,2-trifluoroethoxy)pyridin-3-yl)pyrimidine-4-carboxamide] | 2.2 nM | – | 220 nM | 1.9 nM
9 | CN(C)c1ccc(Nc2nccc(C(=O)Nc3cnccc3-c3ccccc3)n2)cn1 [Example 93, 2-((6-(Dimethylamino)pyridin-3-yl)amino)-N-(4-phenylpyridin-3-yl)pyrimidine-4-carboxamide] | 3.1 nM | 4.3 nM | 390 nM | –
10 | O=C(Nc1cncnc1N1CCOCC1)c1ccnc(NCC2CCC2)n1 [Example 203, 2-((Cyclobutylmethyl)amino)-N-(4-morpholinopyrimidin-5-yl)pyrimidine-4-carboxamide] | 6.1 nM | – | 600 nM | 8.7 nM
11 | O=C(Nc1cnccc1OCC(F)(F)F)c1ccnc(NC2CCCCC2)n1 [Example 117, 2-(Cyclohexylamino)-N-(4-(2,2,2-trifluoroethoxy)pyridin-3-yl)pyrimidine-4-carboxamide] | 0.21 nM | 0.25 nM | 28 nM | –
12 | O=C(Nc1cnccc1-c1ccccc1)c1ccnc(NC2CCOCC2)n1 [Example 88, N-(4-Phenylpyridin-3-yl)-2-((tetrahydro-2H-pyran-4-yl)amino)pyrimidine-4-carboxamide] | 1.4 nM | 2.6 nM | 150 nM | –
13 | CC(C)Nc1nccc(C(=O)Nc2cnccc2OCC(F)(F)F)n1 [Example 120, 2-(Isopropylamino)-N-(4-(2,2,2-trifluoroethoxy)pyridin-3-yl)pyrimidine-4-carboxamide] | 1.4 nM | 0.44 nM | 26 nM | –
14 | O=C(Nc1cnccc1-c1ccccc1)c1ccnc(Nc2ccc(C(F)(F)F)cc2Cl)n1 [Example 20, 2-((2-Chloro-4-(trifluoromethyl)phenyl)amino)-N-(4-phenylpyridin-3-yl)pyrimidine-4-carboxamide] | 16 nM | 24 nM | 5700 nM | –
15 | O=C(Nc1cnccc1OCC(F)(F)F)c1ccnc(NCC(F)(F)F)n1 [Example 141, N-(4-(2,2,2-Trifluoroethoxy)pyridin-3-yl)-2-((2,2,2-trifluoroethyl)amino)pyrimidine-4-carboxamide] | 8 nM | 7.8 nM | 300 nM | –
16 | O=C(Nc1cncc(-c2ccccc2F)c1)c1ccnc(Nc2cccc(OC(F)(F)F)c2)n1 [Example 187, N-(5-(2-Fluorophenyl)pyridin-3-yl)-2-((3-(trifluoromethoxy)phenyl)amino)pyrimidine-4-carboxamide] | 7.9 nM | 13 nM | 2500 nM | –

Row | Compound | IC50 [1] | IC50 [2, 4] | IC50 [3] | IC50 [2]
17 | O=C(Nc1cnc(F)cc1N1CCC(F)(F)CC1)c1ccnc(Nc2ccccc2)n1 [Example 177, N-(4-(4,4-Difluoropiperidin-1-yl)-6-fluoropyridin-3-yl)-2-(phenylamino)pyrimidine-4-carboxamide] | 0.41 nM | 0.47 nM | 60 nM | –
18 | O=C(Nc1cnc(F)cc1N1CCOCC1)c1ccnc(Nc2cccc(OC(F)(F)F)c2)n1 [Example 172, N-(6-Fluoro-4-morpholinopyridin-3-yl)-2-((3-(trifluoromethoxy)phenyl)amino)pyrimidine-4-carboxamide] | 0.46 nM | 0.89 nM | 160 nM | –
19 | CC(C)OCCCNc1nccc(C(=O)Nc2cncnc2OCC(F)(F)F)n1 [Example 74, 2-((3-Isopropoxypropyl)amino)-N-(4-(2,2,2-trifluoroethoxy)pyrimidin-5-yl)pyrimidine-4-carboxamide] | 4.5 nM | 5.9 nM | 890 nM | –
20 | O=C(Nc1cncnc1OCC(F)(F)F)c1ccnc(Nc2ccc(OC(F)F)nc2)n1 [Example 73, 2-((6-(Difluoromethoxy)pyridin-3-yl)amino)-N-(4-(2,2,2-trifluoroethoxy)pyrimidin-5-yl)pyrimidine-4-carboxamide] | 0.18 nM | 0.26 nM | 22 nM | –
21 | Cc1ccc(Nc2nccc(C(=O)Nc3cncc(-c4ccccc4F)c3)n2)cn1 [Example 103, N-(5-(2-Fluorophenyl)pyridin-3-yl)-2-((6-methylpyridin-3-yl)amino)pyrimidine-4-carboxamide] | 1.3 nM | 3.1 nM | 510 nM | –
22 | Cc1ccc(Nc2nccc(C(=O)Nc3cnccc3OCC(F)(F)F)n2)cc1 [Example 54, 2-(p-Tolylamino)-N-(4-(2,2,2-trifluoroethoxy)pyridin-3-yl)pyrimidine-4-carboxamide] | 0.08 nM | 0.12 nM | 5.1 nM | –
23 | O=C(Nc1cnccc1OCC(F)(F)F)c1ccnc(Nc2ccccn2)n1 [Example 114, 2-(Pyridin-2-ylamino)-N-(4-(2,2,2-trifluoroethoxy)pyridin-3-yl)pyrimidine-4-carboxamide] | 14 nM | – | 210 nM | 20 nM
24 | O=C(Nc1cnccc1-c1ccccc1)c1ccnc(Nc2cncc3c2CCCC3)n1 [Example 91, N-(4-Phenylpyridin-3-yl)-2-((5,6,7,8-tetrahydroisoquinolin-4-yl)amino)pyrimidine-4-carboxamide] | 2.3 nM | 3.5 nM | 270 nM | –
25 | O=C(Nc1cncnc1OCC(F)(F)F)c1ccnc(Nc2ccc(Cl)cc2F)n1 [Example 71, 2-((4-Chloro-2-fluorophenyl)amino)-N-(4-(2,2,2-trifluoroethoxy)pyrimidin-5-yl)pyrimidine-4-carboxamide] | 4.2 nM | 8 nM | 1000 nM | –
26 | Cc1cc(C#N)ccc1Nc1nccc(C(=O)Nc2cnccc2-c2ccccc2)n1 [Example 21, 2-((4-Cyano-2-methylphenyl)amino)-N-(4-phenylpyridin-3-yl)pyrimidine-4-carboxamide] | 0.35 nM | 0.43 nM | 97 nM | –
27 | O=C(Nc1cnccc1OCC(F)(F)F)c1ccnc(Nc2ccc(F)cc2F)n1 [Example 113, 2-((2,4-Difluorophenyl)amino)-N-(4-(2,2,2-trifluoroethoxy)pyridin-3-yl)pyrimidine-4-carboxamide] | 4 nM | 5.3 nM | 300 nM | –
28 | CS(=O)(=O)c1ccc(Nc2nccc(C(=O)Nc3cnccc3-c3ccccc3)n2)cc1 [Example 15, 2-((4-(Methylsulfonyl)phenyl)amino)-N-(4-phenylpyridin-3-yl)pyrimidine-4-carboxamide] | 0.19 nM | 0.27 nM | 10 nM | –
29 | O=C(Nc1cnccc1-c1ccccc1)c1ccnc(Nc2c(F)cc(Cl)cc2F)n1 [Example 30, 2-((4-Chloro-2,6-difluorophenyl)amino)-N-(4-phenylpyridin-3-yl)pyrimidine-4-carboxamide] | 1.8 nM | 3.9 nM | 350 nM | –
30 | CC(C)(C)C1CCC(Nc2nccc(C(=O)Nc3cnccc3OCC(F)(F)F)n2)CC1 (stereo not drawn) [Example 121, 2-((4-(tert-Butyl)cyclohexyl)amino)-N-(4-(2,2,2-trifluoroethoxy)pyridin-3-yl)pyrimidine-4-carboxamide] | 0.35 nM | 0.46 nM | 61 nM | –
31 | CC(Nc1nccc(C(=O)Nc2cnccc2-c2ccc(F)cc2)n1)C(C)(C)C (stereo not drawn) [Example 157, 2-((3,3-Dimethylbutan-2-yl)amino)-N-(4-(4-fluorophenyl)pyridin-3-yl)pyrimidine-4-carboxamide] | 0.72 nM | 2.2 nM | 410 nM | –
32 | CC(C)OCCCNc1nccc(C(=O)Nc2cnccc2OCC(F)(F)F)n1 [Example 65, 2-((3-Isopropoxypropyl)amino)-N-(4-(2,2,2-trifluoroethoxy)pyridin-3-yl)pyrimidine-4-carboxamide] | 1.4 nM | 2 nM | 86 nM | –
